Assay results: US20220033430A1, “ORALLY ACTIVE PRODRUG OF GEMCITABINE” (TNT Medical Corporation, priority 2018, published 2022)
“Also recorded” adds a separate entry of the source.

Legend:
[1] = tested on: ovarian cancer A2780 xenograft model; assay: In vivo xenograft study, ovarian cancer A2780 model; set-up: species or system mice; conditions: for Tumor volume: A2780 xenograft
Source text: Compound of Example 2 was selected for in vivo studies in the ovarian cancer A2780 xenograft model. Typically, athymic nude mice (CD-1 nu/nu) or SCID mice are obtained at age 6-8 weeks from vendors and acclimated for a minimum 7-day period. The cancer cells are then implanted into the nude mice. Depending on the specific tumor type, tumors are typically detectable about two weeks following implantation. When tumor sizes reach ˜100-200 mm^3, the animals with appreciable tumor size and shape are randomly assigned into groups of 8 mice each, including one vehicle control group and treatment groups. Dosing varies depending on the purpose and length of each study, which typically proceeds for about 3-4 weeks. Tumor sizes and body weight are typically measured three times per week. In addition to the determination of tumor size changes, the last tumor measurement is used to generate the tumor size change ratio (T/C value), a standard metric developed by the National Cancer Institute for xenograft tumor evaluation. In most cases, % T/C values are calculated using the following formula: % T/C=100×ΔT/ΔC if ΔT>0. When tumor regression occurred (ΔT<0), however, the following formula is used: % T/T0=100×ΔT/T0. Values of <42% are considered significant.
Ovarian Cancer is the 5th most common cancer in women: ˜ 22,280 new cases and 14,240 death in 2016 in US. In China, Ovarian Cancer has more than 100,000 new cases each year. Gemcitabine (intravenous dosing) is the 2nd line SOC of Ovarian Cancer.

[2] = mice, single oral (gavage) dose of 167, 333, or 500 mg/kg; cited from earlier work
[3] = LY2334737 QD, Japanese patients, 2013; cited from earlier work
[4] = Mice PK study: plasma active metabolite Gemcitabine after dosing of prodrug; type: in vivo, male CD1 mouse; conditions: single dose 10, 150, 300 mg/kg
Procedure: The pharmacokinetics of compounds were evaluated in male CD1 mouse via Intravenous and Oral Administration. The iv dose was administered as a slow bolus in the Jugular vein, and oral doses were administered by gavage. The formulation is 2.5% DMSO, 10% EtOH, 20% Cremphor EL, 67.5% D5W. The PK time point 5 min, 15, 30 min, 1, 2, 4, 6, 8 hours post dose. Approximately 0.03 mL blood will be collected at each time point. Keep blood at room temperature and collect plasma within 15 min by centrifugation at 4000 g for 5 minutes in a 4° C. centrifuge. Plasma samples will be stored in polypropylene tubes. The plasma samples will be stored in a freezer at −75±15° C. prior to analysis. Concentrations of compounds and the active metaboliste Gemcitabine in the plasma samples will be analyzed using a LC-MS/MS method. WinNonlin (Phoenix, version 6.1) or other similar software will be used for pharmacokinetic calculations. The following pharmacokinetic parameters will be calculated, whenever possible from the plasma concentration versus time data: IV administration: C0, CL, Vd, T1/2, AUCinf, AUClast, MRT, Number of Points for Regression; PO administration: Cmax, Tmax, T1/2, AUCinf, AUClast, F %, Number of Points for Regression. The pharmacokinetic data will be described using descriptive statistics such as mean, standard deviation. […]

[5] = Water solubility observed during formulation for the PK study; type: physicochemical; conditions: compared with LY2334737

Nc1ccn([C@@H]2O[C@H](CO)[C@@H](O)C2(F)F)c(=O)n1 [Gemcitabine]
Tumor volume ([1]; 120 mg/kg IV qw × 4): 442 mm^3 | adverse dose-limiting intestinal lesions [2]: moderate-to-marked loss of mucosal epithelium (atrophic enteropathy)

CCCC(CCC)C(=O)Nc1ccn([C@@H]2O[C@H](CO)[C@@H](O)C2(F)F)c(=O)n1 [LY2334737]
hepatic toxicity [3]: unexpected hepatic toxicities were observed

CCCC(CCC)C(=O)Nc1ccn([C@@H]2O[C@H](COC(=O)C(C)C)[C@@H](OC(=O)[C@@H](N)C(C)C)C2(F)F)c(=O)n1 [Example 2, (2R,3R,5R)-4,4-difluoro-2-[[(2-methylpropanoyl)oxy]methyl]-5-[2-oxo-4-(2-propylpentanamido)-1,2-dihydropyrimidin-1-yl]oxolan-3-yl (2S)-2-amino-3-methylbutanoate]
PK linearity of active metabolite Gemcitabine [4]: good PK linearity | water solubility [5]: significant higher water solubility than LY2334737; also recorded: excellent water solubility | efficacy compared with Gemcitabine (IV dosing) ([1]; A2780 model, Example 2 oral dosing): better efficacy than Gemcitabine (IV dosing) | Tumor volume ([1]; 75 mg/kg po q4d × 7): 65 mm^3
